Test results: patent US7109244B2, “Compositions and methods comprising long-chain, straight-chain 2-amino-3-hydroxyalkanes” (priority 1997, dated 2006)
Read-outs that look alike come from different tables or passages of the source.

What was measured:
[1] = system: L1210 murine lymphocytic leukemia cells; test: L1210 cytotoxicity assay (inhibition of growth); assay type: cell-based
Procedure: The morphological effect was usually measured 30–35 h after the start of the assay and again about 24 h later, while the cytotoxicity was determined when the number of cells in the controls reached approximately 8000, usually in 3 days after the assay was begun. It should be noted that the pointed cells were live cells and that they were counted as such for the cytotoxicity reading. […] All morphologically-changed cells were counted in the pointed cell percentage.
Cytotoxicity assays against L1210 murine lymphocytic leukemia cells were performed by dissolving the samples in methanol and/or hexane were applied to the dry assay wells and the solvent was allowed to evaporate. Cells (1000) were added in minimum essential medium (MEM, 1 ml) and incubated 37° C. Inhibition of growth was recorded as the estimated percentage of living cells in sample wells versus that in control wells.

[2] = system: L1210 murine lymphocytic leukemia cells; test: L1210 morphological change (pointed cells); assay type: cell-based; settings: for % Pointed Cells 1st: 27 h
Procedure: Referring to FIG. 1, in the L1210 assay some of the cells changed from being spherical (FIG. 1A) to ovoid with long points approximately […] apart (FIG. 1B). Several other forms have also been observed in assays of these extracts, including cells with points not […] apart (FIG. 1C), cells with more than two points (FIG. 1D), cells with a bulge (FIG. 1E) and cells with a bulge replacing one of the points (FIG. 1F). However, the form with two sharp, opposing points was by far the predominant and characteristic one observed. This type of morphological change had not previously been observed during the screening of over 1000 marine extracts.
As discussed above, the spisulosines caused a distinct morphological change in L1210 leukemia cells, in addition to cytotoxicity. This bioactivity, which was recorded as the percentage of living cells in which altered morphology was observed, could be observed sometimes as early as 13 h after the start of the assay and reached a maximum at 50–60 h, after which it decreased. […] The morphological effect was usually measured 30–35 h after the start of the assay and again about 24 h later, while the cytotoxicity was determined when the number of cells in the controls reached approximately 8000, usually in 3 days after the assay was begun. It should be noted that the pointed cells were live cells and that they were counted as such for the cytotoxicity reading. Also, assays in which 100% cytotoxicity was recorded may still have contained live cells (<0.5%) which may or may not have been pointed. All morphologically-changed cells were counted in the pointed cell percentage.
Morphologically-changed cells (FIGS. 1A–1F) were counted as living cells when determining the percent inhibition of growth. Morphological changes were assessed throughout the assay period. The percentage of pointed cells was determined by counting the number of altered cells in approximately 60 living cells. This percentage varied with the length of time the assay had been running. It generally reached its maximum about 50 hours after the start of the assay, but pointed cells could be observed as early as 13 hours after the start of the assay and could usually still be seen when the percent growth inhibition was measured. The percentages of pointed cells were often counted both after about 35 and after 55 hours. The time that this measurement was made is indicated with the data.

[3] = system: Chinese hamster ovary (CHO) cells; settings: cited from earlier work
[4] = system: Gram-positive and Gram-negative bacteria and fungi; settings: cited from earlier work
[5] = system: Nippostrongylus brasiliensis; settings: cited from earlier work
protein kinase C = settings: competing with diacylglycerol for the binding site; cited from earlier work
HL-60 cells = settings: cells treated with phorbol 12-myristate-13-acetate; cited from earlier work
Vero cells = test: effect of LPA on the action of spisulosine 285 in Vero cells (Example D); assay type: cell-based
Description: LPA is known to increase the level of stress fibers in cells by activation of the Rho protein. The effect of LPA on cells treated with spisulosine 285, and untreated cells was examined. […]

Compound: CCCCCCCCCCCCC/C=C/[C@@H](O)[C@@H](N)COP(=O)(O)OCC[N+](C)(C)C [Compound 163, reference compound]
- inhibition at 10 µg/mL ([1]; Mus musculus, L1210, 10 μg/ml): 38%
- inhibition at 25 µg/mL ([1]; Mus musculus, L1210, 25 μg/ml): 50%
- inhibition at 50 µg/mL ([1]; Mus musculus, L1210, 50 μg/ml): 88%
- % Pointed cells ([2]; 10 μg/ml): 0%
- % Pointed cells ([2]; 25 μg/ml): 0%
- % Pointed cells ([2]; 50 μg/ml): 0%

Compound: CCCCCCCCCCCCCCC[C@H](O)[C@H](C)N [Compound 154, (2S,3S)-2-amino-3-octadecanol]
- inhibition at 0.1 µg/mL ([1]; Mus musculus, L1210, 0.1 μg/ml, read-out: % Inhibitiion): 0%
- inhibition at […] ([1]; Mus musculus, L1210, 0.25 μg/ml, read-out: % Inhibitiion): 0%
- inhibition at 0.5 µg/mL ([1]; Mus musculus, L1210, 0.5 μg/ml, read-out: % Inhibitiion): 0%
- inhibition at 1 µg/mL ([1]; Mus musculus, L1210, 1 μg/ml, read-out: % Inhibitiion): 63%
- inhibition at […] ([1]; Mus musculus, L1210, 2.5 μg/ml, read-out: % Inhibitiion): 100%
- inhibition at 5 µg/mL ([1]; Mus musculus, L1210, 5 μg/ml, read-out: % Inhibitiion): 100%
- % Pointed Cells 1st ([2]; 0.1 μg/ml): 0%
- % Pointed Cells 1st ([2]; 0.5 μg/ml): 0%
- % Pointed Cells 1st ([2]; 1 μg/ml): 0%
- % Pointed Cells 1st ([2]; 5 μg/ml): 0%

Compound: CCCCCCCCCCCCCCC[C@@H](O)[C@@H](N)CO [Compound 164, dihydrosphingosine]
- cytotoxicity [3]: did not affect the cytotoxicity

Compound: C=CCCCCCCCCCC(O)C(C)N (centres unmarked) [Xestaminol A]
- activity against bacteria and fungi [4]: weak activity
- antihelminthic activity [5]: antihelminthic activity

Compound: CCCCCCCCCCCCCCCCCCN [Compound 131, stearylamine, reference compound]
- L1210 cytotoxicity (in words) [1]: moderate cytotoxicity
- inhibition at 0.1 µg/mL ([1]; Mus musculus, L1210, 0.1 μg/ml, read-out: % Inhibition): 0%
- inhibition at […] ([1]; Mus musculus, L1210, 0.25 μg/ml, read-out: % Inhibition): 0%
- inhibition at 0.5 µg/mL ([1]; Mus musculus, L1210, 0.5 μg/ml, read-out: % Inhibition): 0%
- inhibition at 1 µg/mL ([1]; Mus musculus, L1210, 1 μg/ml, read-out: % Inhibition): 19%
- inhibition at […] ([1]; Mus musculus, L1210, 2.5 μg/ml, read-out: % Inhibition): 96%
- inhibition at 5 µg/mL ([1]; Mus musculus, L1210, 5 μg/ml, read-out: % Inhibition): 99%
- cytotoxicity [3]: cytotoxic
- L1210 morphological alteration / pointed cell activity (in words) [2]: no morphological effect
- % Pointed cells ([2]; 0.1 μg/ml): 0%
- % Pointed cells ([2]; 0.5 μg/ml): 0%
- % Pointed cells ([2]; 1 μg/ml): 0%
- % Pointed cells ([2]; 5 μg/ml): 0%

Compound: CCCCCCCCCCCCC/C=C/[C@@H](O)[C@@H](N)CO (relative stereo) [sphingosine, D-trans-erythro-sphingosine, reference compound]
- L1210 cytotoxicity (in words) [1]: moderate cytotoxicity
- % Inhibition ([1]; 0.1 μg/ml): 0%
- % Inhibition ([1]; 0.5 μg/ml): 31%
- % Inhibition ([1]; 1 μg/ml): 75%
- % Inhibition ([1]; 5 μg/ml): 100%
- cytotoxicity [3]: cytotoxic
- inhibition of protein kinase C (protein kinase C): potent inhibitor
- differentiation of HL-60 cells (HL-60 cells): inhibit the differentiation
- L1210 morphological alteration / pointed cell activity (in words) [2]: no morphological effect
- % Pointed cells ([2]; 0.1 μg/ml): 0%
- % Pointed cells ([2]; 0.5 μg/ml): 0%
- % Pointed cells ([2]; 1 μg/ml): 0%
- % Pointed cells ([2]; 5 μg/ml): 0%

Compound: Lysophosphatidic acid [LPA]
- effect of LPA added prior to spisulosine on morphology (Vero cells; 10 mM LPA 2 hours, then 0.5 mM spisulosine 285 for 18 hours): prevents the morphological change promoted by spisulosine
- level of actin (Vero cells; 10 mM LPA, 2 hours): increasing the level of actin
